Results taken from ChEMBL document CHEMBL5252641, “Design, synthesis, and evaluation of benzofuran-based chromenochalcones for antihyperglycemic and antidyslipidemic activities” (RSC Med Chem, 2023).
The source made the active and inactive calls. The rule behind the calls is not given here.

Key:
[1] = Antioxidant activity assessed as hydroxyl radical scavenging activity at 100 uM incubated for 90 mins by spectrophotometric analysis; format: functional
[2] = Antioxidant activity assessed as superoxide anion radical scavenging activity at 100 uM incubated for 30 mins by spectrophotometric analysis; format: functional
Syrian golden hamster [3] = experiment: Antidyslipidemic activity in Triton-induced hyperlipidemic Syrian golden hamster model assessed as increase in post-heparin lipolytic activity at 50 mg/kg measured after 18 hrs; format: functional, Mesocricetus auratus
Syrian golden hamster [4] = experiment: Antidyslipidemic activity in Triton-induced hyperlipidemic Syrian golden hamster model assessed as decrease in PL level at 50 mg/kg measured after 18 hrs; format: functional, Mesocricetus auratus; design: scale not given: the % may be the effect or the level left
Syrian golden hamster [5] = experiment: Antidyslipidemic activity in Triton-induced hyperlipidemic Syrian golden hamster model assessed as decrease in triglyceride level at 50 mg/kg measured after 18 hrs; format: functional, Mesocricetus auratus; design: scale not given: the % may be the effect or the level left
Syrian golden hamster [6] = experiment: Antidyslipidemic activity in Triton-induced hyperlipidemic Syrian golden hamster model assessed as decrease in total cholesterol level at 50 mg/kg measured after 18 hrs; format: functional, Mesocricetus auratus; design: scale not given: the % may be the effect or the level left
Syrian golden hamster [7] = experiment: Antidyslipidemic activity in Triton-induced hyperlipidemic Syrian golden hamster model assessed as increase in lecithin-cholesterol acyltransferase level at 50 mg/kg measured after 18 hrs; format: functional, Mesocricetus auratus
L6 [8] = experiment: Induction of glucose uptake in rat L6 cells expressing GLUT4 myc epitopes at 10 uM incubated for 24 hrs by scintillation counting method relative to control; format: functional
L6 [9] = experiment: Induction of glucose uptake in rat L6 cells expressing GLUT4 myc epitopes at 5 uM incubated for 24 hrs by scintillation counting method relative to control; format: functional
L6 [10] = experiment: Cytotoxicity against rat L6 cells assessed as reduction in cell viability at 10 uM by MTT assay; format: toxicity, cell-based; conditions: l6, 10 µM
Rattus norvegicus [11] = experiment: Antidiabetic activity in streptozotocin induced hyperglycemic Wistar rat model assessed as improvement in blood glucose level at 100 mg/kg,po measured upto 24 hrs relative to control; format: functional
Rattus norvegicus [12] = experiment: Antidiabetic activity in streptozotocin induced hyperglycemic Wistar rat model assessed as improvement in blood glucose level at 100 mg/kg,po measured upto 5 hrs relative to control; format: functional
L6 [13] = experiment: Induction of GLUT4myc translocation to rat L6 cells surface at 5 to 25 uM incubated for 20 mins followed by insulin stimulation by colorimetric assay; format: functional, cell-based; conditions: dose 5-25 µM
L6 [14] = experiment: Induction of GLUT4myc translocation to rat L6 cells surface measured after 16 hrs by colorimetric assay; format: functional, cell-based; conditions: dose 5-25 µM
L6 [15] = experiment: Cytotoxicity against rat L6 cells assessed as reduction in cell viability at 5 to 100 uM incubated overnight by MTT assay; format: toxicity, cell-based; conditions: l6, 100 µM, dose 5-100 µM
L6 [16] = experiment: Induction of insulin stimulated glucose uptake in rat L6 cells expressing GLUT4 myc epitopes at 10 uM preincubated for 16 hrs followed by 3 hrs incubation under serum deprived medium prior to insulin stimulation for 20 mins; format: functional, cell-based; conditions: time 1160.0 min

Row | Structure (SMILES) | Activity [1] | Activity [2] | Activity (Syrian golden hamster [3]) | Activity (Syrian golden hamster [4]) | Activity (Syrian golden hamster [5]) | Activity (Syrian golden hamster [6]) | Activity (Syrian golden hamster [7]) | Activity (L6 [8]) | Activity (L6 [9]) | Activity (L6 [10]) | Activity (Rattus norvegicus [11]) | Activity (Rattus norvegicus [12]) | Activity (L6 [13]) | Activity (L6 [14]) | Activity (L6 [15]) | Activity (L6 [16])
1 | Cc1ccc(C(=O)c2cc3cc(/C=C/C(=O)c4ccc5c(c4O)C=CC(C)(C)O5)ccc3o2)cc1 | 10 | 11 | 18% | 11% | 13% | 13% | 17% | 53.1% | – | – | – | – | – | – | – | –
2 | CC1(C)C=Cc2c(ccc(C(=O)/C=C/c3ccc4occc4c3)c2O)O1 | 12 | 16 | 19% | 10% | 15% | 13% | 17% | 161.5% | 96% | – | – | – | – | – | – | –
3 | CC(C)=CCCC1(C)C=Cc2c(ccc(C(=O)/C=C/c3ccc4oc(C(=O)c5ccccc5)cc4c3)c2O)O1 (stereo not drawn) | 18 | 18 | 18% | 13% | 10% | 21% | 25% | 20.5% | – | – | – | – | – | – | – | –
4 | COc1ccc(C(=O)c2cc3cc(/C=C/C(=O)c4c(O)ccc5c4OC(C)(CCC=C(C)C)C=C5)ccc3o2)cc1 (stereo not drawn) | 13 | 11 | 19% | 15% | 16% | 16% | 19% | 65.5% | – | – | – | – | – | – | – | –
5 | COc1ccc(C(=O)c2cc3cc(/C=C/C(=O)c4c(O)c5c(c6c4OC(C)(C)C=C6)OC(C)(C)C=C5)ccc3o2)cc1 | 17 | 12 | 21% | 13% | 15% | 9% | 12% | 22% | – | – | – | – | – | – | – | –
6 | CN(CCOc1ccc(CC2SC(=O)NC2=O)cc1)c1ccccn1 (stereo not drawn) [ROSIGLITAZONE] | – | – | – | – | – | – | – | 96.5% | – | – | – | – | – | – | – | –
7 | OC[C@@H](O)[C@@H](O)[C@H](O)[C@H](O)CO | 39 | – | – | – | – | – | – | – | – | – | – | – | – | – | – | –
8 | Cc1ccc(C(=O)c2cc3cc(/C=C/C(=O)c4c(O)ccc5c4OC(C)(C)C=C5)ccc3o2)cc1 | 18 | 13 | 19% | 11% | 15% | 16% | 20% | 72.9% | – | – | – | – | – | – | – | –
9 | COc1ccc(C(=O)c2cc3cc(/C=C/C(=O)c4ccc5c(c4O)C=CC(C)(CCC=C(C)C)O5)ccc3o2)cc1 (stereo not drawn) | 7 | 9 | 14% | 10% | 10% | 7% | 9% | 6% | – | – | – | – | – | – | – | –
10 | CC1(C)C=Cc2ccc(O)c(C(=O)/C=C/c3ccc4occc4c3)c2O1 | 15 | 18 | 21% | 19% | 11% | 14% | 18% | – | – | Toxic | – | – | – | – | – | –
11 | CC1(C)C=Cc2c(O)c(C(=O)/C=C/c3ccc4oc(C(=O)c5ccc(Cl)cc5)cc4c3)c3c(c2O1)C=CC(C)(C)O3 | 13 | 21 | 26% | 16% | 24% | 11% | 15% | 27% | – | – | – | – | – | – | – | –
12 | CC(C)=CCCC1(C)C=Cc2ccc(O)c(C(=O)/C=C/c3ccc4oc(C(=O)c5ccc(Cl)cc5)cc4c3)c2O1 (stereo not drawn) | 13 | 12 | 24% | 18% | 18% | 11% | 15% | 4% | – | – | – | – | – | – | – | –
13 | CC1(C)C=Cc2c(O)c(C(=O)/C=C/c3ccc4oc(C(=O)c5ccccc5)cc4c3)c3c(c2O1)C=CC(C)(C)O3 | 11 | 15 | 23% | 16% | 18% | 10% | 14% | 26.5% | – | – | – | – | – | – | – | –
14 | COc1ccc(C(=O)c2cc3cc(/C=C/C(=O)c4c(O)ccc5c4OC(C)(C)C=C5)ccc3o2)cc1 | 7 | 10 | 17% | 11% | 13% | 10% | 12% | 220.5% | 93% | – | 16.8% | 18.7% | Active | Dose-Dependent Effect | Non-Toxic | inactive
15 | CN(C)C(=N)NC(=N)N [METFORMIN] | – | – | – | – | – | – | – | – | – | – | 27.9% | 30.5% | – | – | – | –
16 | COc1ccc(C(=O)c2cc3cc(/C=C/C(=O)c4c(O)c5c(c6c4OC(C)(CCC=C(C)C)C=C6)OC(C)(CCC=C(C)C)C=C5)ccc3o2)cc1 (stereo not drawn) | 11 | 9 | 16% | 13% | 14% | 18% | 21% | 37% | – | – | – | – | – | – | – | –
17 | CC(C)=CCCC1(C)C=Cc2ccc(O)c(C(=O)/C=C/c3ccc4oc(C(=O)c5ccccc5)cc4c3)c2O1 (stereo not drawn) | 13 | 12 | 13% | 6% | 8% | 17% | 19% | 82.5% | – | – | – | – | – | – | – | –
18 | Cc1ccc(C)c(OCCCC(C)(C)C(=O)O)c1 [GEMFIBROZIL] | – | – | 41% | 34% | 36% | 38% | 42% | – | – | – | – | – | – | – | – | –
19 | CC1(C)C=Cc2ccc(O)c(C(=O)/C=C/c3ccc4oc(C(=O)c5ccc(Cl)cc5)cc4c3)c2O1 | 12 | 17 | 11% | 6% | 7% | 8% | 10% | 89% | – | – | – | – | – | – | – | –
20 | CC(C)=CCCC1(C)C=Cc2ccc(O)c(C(=O)/C=C/c3ccc4oc(C(=O)c5ccc(C)cc5)cc4c3)c2O1 (stereo not drawn) | 11 | 19 | 22% | 17% | 14% | 18% | 22% | 47.4% | – | – | – | – | – | – | – | –
21 | CC(C)=CCCC1(C)C=Cc2ccc(O)c(C(=O)/C=C/c3ccc4occc4c3)c2O1 (stereo not drawn) | 19 | 11 | 17% | 11% | 11% | 10% | 14% | 108% | – | – | – | – | – | – | – | –
22 | Oc1ncnc2[nH]ncc12 | – | 37 | – | – | – | – | – | – | – | – | – | – | – | – | – | –
23 | CC1(C)C=Cc2c(O)c(C(=O)/C=C/c3ccc4occc4c3)c3c(c2O1)C=CC(C)(C)O3 | 12 | 16 | 22% | 13% | 19% | 11% | 15% | 124% | – | – | 0.81% | 2.3% | – | – | – | –
24 | COc1ccc(C(=O)c2cc3cc(/C=C/C(=O)c4ccc5c(c4O)C=CC(C)(C)O5)ccc3o2)cc1 | 11 | 16 | 21% | 13% | 16% | 15% | 19% | 109.5% | – | – | – | – | – | – | – | –
25 | CC(C)=CCCC1(C)C=Cc2c(ccc(C(=O)/C=C/c3ccc4occc4c3)c2O)O1 (stereo not drawn) | 16 | 14 | 21% | 19% | 11% | 16% | 20% | 188% | 73.5% | – | 17.2% | 19.2% | – | – | – | –
